For data set [1], the system named is α-glucosidase. Briefly: α-glucosidase inhibition assay. The data set is classed as biochemical. Particulars: at 0.5 mM; mean ± S.E.M., n = 3.
Data set [2] concerns erythrocytes (heparinized bovine blood). Briefly: hemolytic activity. The class given is cell-based. Particulars: 35 min at 37 °C, 10^8 cells/mL; PBS negative control 2.45 ± 0.01%.

Molecules are shown by their SMILES.

`CC(Sc1nnc(Cc2c[nH]c3ccccc23)o1)C(=O)NCCc1ccccc1` (stereo not shown) [8d, N-(2-Phenethyl)-2-({5-((1H-indol-3-yl)methyl)-1,3,4-oxadiazol-2-yl}sulfanyl)propanamide]: the “α-glucosidase (%) inhibition” value in data set [1] is listed as 93.38 ± 0.38%. The “hemolysis (%)” value in data set [2] turned out to be 0.05 ± 0.01%.

In the case of `CCc1ccccc1NC(=O)C(C)Sc1nnc(Cc2c[nH]c3ccccc23)o1` (stereo not shown) [8h, N-(2-Ethylphenyl)-2-({5-((1H-indol-3-yl)methyl)-1,3,4-oxadiazol-2-yl}sulfanyl)propanmide], in data set [1], the “α-glucosidase (%) inhibition” value worked out at 98.21 ± 0.31%. In data set [2], the “hemolysis (%)” value is given as 0.83 ± 0.01%.

In the case of `COC(=O)c1ccccc1NC(=O)C(C)Sc1nnc(Cc2c[nH]c3ccccc23)o1` (stereo not shown) [8l, N-((2-Methoxycarbonyl)phenyl)-2-({5-((1H-indol-3-yl)methyl)-1,3,4-oxadiazol-2-yl}sulfanyl)propanamide], the “α-glucosidase (%) inhibition” value in data set [1] was found to be 97.56 ± 0.57%. Moreover, the “hemolysis (%)” value in data set [2] amounted to 8.16 ± 0.02%.

Consider `C[C@H]1O[C@H](O[C@H]2[C@H](O)[C@@H](O)[C@@H](O[C@H]3[C@H](O)[C@@H](O)C(O)O[C@@H]3CO)O[C@@H]2CO)[C@H](O)[C@@H](O)[C@@H]1N[C@H]1C=C(CO)[C@@H](O)[C@H](O)[C@H]1O` (stereo partly shown) [acarbose, reference compound], for which, in data set [1], the “α-glucosidase (%) inhibition” value stood at 92.23 ± 0.14%.

The values above are taken from PMC10312992 (ACS Omega, 2023).
